Measured values published in PubChem BioAssay (NCI).
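Values below derive from 48-hour exposures of cells grown in 96-well plates, with endpoints linearly interpolated between the two concentrations bracketing the appropriate inhibition level. TGI is the concentration that stops growth completely.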

Experiments:
Test in all cases: NCI-60 cell line screen, 48 h
SK-MEL-5 melanoma = tested on: SK-MEL-5 melanoma
HT29 colon = tested on: HT29 colon
SN12C renal = tested on: SN12C renal
MOLT-4 leukemia = tested on: MOLT-4 leukemia
RPMI-8226 leukemia = tested on: RPMI-8226 leukemia
SF-295 CNS = tested on: SF-295 CNS
SF-539 CNS = tested on: SF-539 CNS
SK-OV-3 ovarian = tested on: SK-OV-3 ovarian
A549 NSCLC = tested on: A549 NSCLC
EKVX NSCLC = tested on: EKVX NSCLC
HL-60(TB) leukemia = tested on: HL-60(TB) leukemia
MALME-3M melanoma = tested on: MALME-3M melanoma
IGROV1 ovarian = tested on: IGROV1 ovarian
U251 CNS = tested on: U251 CNS
SR leukemia = tested on: SR leukemia
NCI-H522 lung = tested on: NCI-H522 lung
HOP-62 NSCLC = tested on: HOP-62 NSCLC
SK-MEL-28 melanoma = tested on: SK-MEL-28 melanoma

Compound | TGI (SK-MEL-5 melanoma) | TGI (HT29 colon) | TGI (SN12C renal) | TGI (MOLT-4 leukemia) | TGI (RPMI-8226 leukemia) | TGI (SF-295 CNS) | TGI (SF-539 CNS) | TGI (SK-OV-3 ovarian) | TGI (A549 NSCLC) | TGI (EKVX NSCLC) | TGI (HL-60(TB) leukemia) | TGI (MALME-3M melanoma) | TGI (IGROV1 ovarian) | TGI (U251 CNS) | TGI (SR leukemia) | TGI (NCI-H522 lung) | TGI (HOP-62 NSCLC) | TGI (SK-MEL-28 melanoma)
Cc1c(N(Cc2ccccc2)Cc2ccccc2)nc(S(C)(=O)=O)nc1S(C)(=O)=O | 25.3 µM | 3.67 µM | 4.28 µM | 4.76 µM | 7.61 µM | 31.5 µM | 25.7 µM | 27.7 µM | 29 µM | 3.01 µM | 4.28 µM | 17.6 µM | 3.21 µM | 6.64 µM | 4.18 µM | 3.14 µM | 28 µM | –
Nn1c(=S)[nH]nc(/C=C/c2c(O)ccc3ccccc23)c1=O | 26.5 µM | 21.9 µM | – | 86.1 µM | > 100 µM | 96.1 µM | > 100 µM | 95.4 µM | 71.2 µM | 20.9 µM | 4.14 µM | 44.6 µM | 5.56 µM | > 100 µM | 87.1 µM | 16.7 µM | 62.8 µM | 73.5 µM
O=C(CCc1ccccc1)NCCc1ccc(O)c(O)c1 | > 50.6 µM | > 69.3 µM | > 69.5 µM | > 89.4 µM | 59.4 µM | > 94.9 µM | > 87.5 µM | > 100 µM | > 100 µM | > 100 µM | 14.3 µM | > 100 µM | > 100 µM | > 100 µM | > 77.3 µM | 44 µM | 97.3 µM | > 100 µM
CO[C@@H](c1ccccc1)[C@H](O)[C@@](O)(c1ccccc1)P(=O)(OC)OC | > 100 µM | > 100 µM | > 100 µM | > 100 µM | > 100 µM | > 100 µM | > 100 µM | > 100 µM | > 100 µM | > 100 µM | > 100 µM | > 100 µM | > 100 µM | > 100 µM | > 100 µM | > 100 µM | – | > 100 µM
Cc1ccc(C)c(C(=O)CC2OC(O)C(Cl)C2Cl)c1 (stereo not given) | > 100 µM | > 100 µM | > 100 µM | > 100 µM | > 100 µM | > 100 µM | 53.2 µM | > 100 µM | > 100 µM | > 100 µM | 95.7 µM | > 100 µM | > 100 µM | > 100 µM | > 100 µM | 29.4 µM | > 100 µM | > 100 µM
O=C1Cc2c(-c3ccccc3)cc(-c3ccc(Cl)cc3)nc2-c2ccccc2N1 | 17 µM | > 46.8 µM | 16.9 µM | > 84.8 µM | > 100 µM | 23.7 µM | 19.8 µM | 7.85 µM | 35.3 µM | > 43.6 µM | > 100 µM | > 34.4 µM | 35.9 µM | 10.5 µM | > 100 µM | 12.8 µM | 12.9 µM | > 31.8 µM
O=C1c2sccc2C(=O)c2c(CO)csc21 | 2.2 µM | 9.55 µM | 22.4 µM | > 52.9 µM | > 100 µM | 8.04 µM | 14.8 µM | 28.2 µM | 6.7 µM | 26.6 µM | 6.08 µM | 6.71 µM | 17.7 µM | 23.2 µM | > 73.2 µM | 13.6 µM | 25.5 µM | 38.3 µM
N#Cc1c2c(c(Nc3ccc(Cl)cc3)n3c1nc1ccccc13)CCCC2 | > 100 µM | > 100 µM | > 100 µM | > 100 µM | 36.1 µM | > 100 µM | > 100 µM | > 100 µM | > 100 µM | > 100 µM | > 100 µM | > 100 µM | > 100 µM | > 65.4 µM | > 100 µM | > 100 µM | > 100 µM | > 100 µM
CN1Cc2c(ccc3c2OCO3)[C@@H]2[C@H](O)Cc3cc4c(cc3[C@@H]21)OCO4 | 40 µM | 5.12 µM | > 39.7 µM | > 57.1 µM | > 37.4 µM | 21.6 µM | 4.6 µM | > 29.9 µM | > 100 µM | > 100 µM | 4.36 µM | > 100 µM | > 100 µM | > 25.1 µM | > 100 µM | 14.6 µM | 28.1 µM | > 100 µM
O=C1C[C@@]23CCC4(CC2=CCC[C@H]3O1)OCCO4 | > 100 µM | > 100 µM | > 100 µM | > 100 µM | > 100 µM | > 100 µM | > 100 µM | > 100 µM | > 100 µM | > 100 µM | > 100 µM | > 100 µM | > 100 µM | > 100 µM | > 100 µM | > 100 µM | > 100 µM | > 100 µM
COC(=O)C1=C(C)C(=O)C2(CCCCCC2C(=O)OC)C1 (stereo not given) | > 100 µM | > 100 µM | > 100 µM | > 100 µM | > 100 µM | > 100 µM | > 100 µM | > 100 µM | > 100 µM | > 100 µM | > 100 µM | > 100 µM | > 100 µM | > 100 µM | > 100 µM | > 100 µM | > 100 µM | > 100 µM
Clc1cc2ncn(C3CCCO3)c2cc1Cl (stereo not given) | > 100 µM | > 100 µM | > 100 µM | > 100 µM | > 100 µM | > 100 µM | > 100 µM | > 100 µM | > 100 µM | > 100 µM | > 100 µM | > 100 µM | 69.5 µM | > 100 µM | > 100 µM | > 100 µM | > 100 µM | > 100 µM
C/C(=C\CNc1ncnc2c1ncn2CCC#N)CO | > 100 µM | > 100 µM | > 100 µM | > 100 µM | > 100 µM | > 100 µM | > 100 µM | > 100 µM | > 100 µM | > 100 µM | > 100 µM | > 100 µM | > 100 µM | – | > 100 µM | > 100 µM | > 100 µM | > 100 µM
CCN(CC)CCCNc1nnc(C)c2[nH]c3ccccc3c12 | 27.8 µM | 56.1 µM | 43 µM | > 100 µM | > 100 µM | 62.5 µM | 5.86 µM | 46.8 µM | 53 µM | 63.4 µM | 27.4 µM | 29.3 µM | 44.3 µM | > 100 µM | 32.6 µM | 21.3 µM | 35.5 µM | 40.6 µM
Nc1nc2c(ccc3ccccc32)[nH]1 | > 10 µM | > 10 µM | > 10 µM | > 10 µM | > 10 µM | > 10 µM | > 10 µM | > 10 µM | > 10 µM | > 10 µM | > 10 µM | > 10 µM | > 10 µM | > 10 µM | > 10 µM | > 10 µM | > 10 µM | > 10 µM
CNC(=O)N(C)C(=O)c1ccccc1C(=O)N(C)C(=O)NC | > 10 µM | > 10 µM | > 10 µM | > 10 µM | > 10 µM | > 10 µM | > 10 µM | > 10 µM | > 10 µM | > 10 µM | > 10 µM | > 10 µM | > 10 µM | > 10 µM | > 10 µM | > 10 µM | > 10 µM | > 10 µM
CCOC(=O)C(NC(=O)c1cccc(Cl)c1)(N1CCN(c2cc3c(cc2F)c(=O)c(C(=O)O)cn3CC)CC1)C(F)(F)F (stereo not given) | 27.2 µM | 42.5 µM | 70.9 µM | 19.3 µM | 62.8 µM | 40 µM | 30.2 µM | 64.2 µM | 64.2 µM | 68.3 µM | 20.1 µM | 32.4 µM | 47.6 µM | 20.9 µM | 52.2 µM | 16.4 µM | 36.6 µM | 33.9 µM
CCCCCCCCCCCCCCCC(=O)OCC(COP(=O)(O)OCCNC(=O)CCSSc1ccccn1)OC(=O)CCCCCCCCCCCCCCC (stereo not given) | > 100 µM | > 100 µM | > 100 µM | > 100 µM | > 100 µM | > 100 µM | > 100 µM | > 100 µM | > 100 µM | > 100 µM | > 100 µM | > 100 µM | > 100 µM | > 100 µM | > 100 µM | > 100 µM | > 100 µM | > 100 µM
COc1cc(CC2C(=O)OCC2Cc2ccc(OC)c(OC)c2)ccc1O (stereo not given) | > 100 µM | > 100 µM | > 100 µM | > 31.7 µM | > 100 µM | > 100 µM | > 100 µM | > 100 µM | > 100 µM | > 100 µM | > 100 µM | > 100 µM | > 100 µM | > 100 µM | > 100 µM | > 100 µM | > 100 µM | > 100 µM
COc1ccc(/[N+]([O-])=C/c2ccccc2OC(=S)S)cc1 | > 100 µM | 49.7 µM | 56.9 µM | > 100 µM | 61 µM | > 100 µM | 52 µM | > 100 µM | > 100 µM | > 100 µM | 70.8 µM | > 100 µM | > 100 µM | > 100 µM | > 100 µM | 74 µM | – | > 100 µM
